In PubChem BioAssay (NCI):
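Briefly, cells in 96-well plates were exposed to five compound concentrations for 48 h, and endpoints were estimated by linear interpolation. Abbreviation: GI50, concentration required for 50% inhibition of growth. Definition used: TGI = concentration required for complete inhibition of growth.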

Assays:
Experiment in all cases: inhibition of tumour cell growth, NCI panel, 48 h
786-0 renal = tested on: 786-0 renal
A498 renal = tested on: A498 renal
A549 NSCLC = tested on: A549 NSCLC
ACHN renal = tested on: ACHN renal
CAKI-1 renal = tested on: CAKI-1 renal
CCRF-CEM leukemia = tested on: CCRF-CEM leukemia
COLO 205 colon = tested on: COLO 205 colon
DU-145 prostate = tested on: DU-145 prostate
EKVX NSCLC = tested on: EKVX NSCLC
HCC-2998 colon = tested on: HCC-2998 colon
HCT-116 colon = tested on: HCT-116 colon
HCT-15 colon = tested on: HCT-15 colon
HL-60(TB) leukemia = tested on: HL-60(TB) leukemia
HOP-92 NSCLC = tested on: HOP-92 NSCLC
HS 578T breast = tested on: HS 578T breast
HT29 colon = tested on: HT29 colon
IGROV1 ovarian = tested on: IGROV1 ovarian
K-562 leukemia = tested on: K-562 leukemia
LOX IMVI melanoma = tested on: LOX IMVI melanoma
M14 melanoma = tested on: M14 melanoma
MALME-3M melanoma = tested on: MALME-3M melanoma
MCF7 breast = tested on: MCF7 breast
MDA-MB-231 breast = tested on: MDA-MB-231 breast
MDA-MB-435 = tested on: MDA-MB-435
MDA-N = tested on: MDA-N
MOLT-4 leukemia = tested on: MOLT-4 leukemia
NCI-H226 lung = tested on: NCI-H226 lung
NCI-H23 lung = tested on: NCI-H23 lung
NCI/ADR-RES ovarian = tested on: NCI/ADR-RES ovarian
OVCAR-5 ovarian = tested on: OVCAR-5 ovarian
OVCAR-8 ovarian = tested on: OVCAR-8 ovarian
PC-3 prostate = tested on: PC-3 prostate
RPMI-8226 leukemia = tested on: RPMI-8226 leukemia
RXF 393 renal = tested on: RXF 393 renal
SF-268 CNS = tested on: SF-268 CNS
SF-295 CNS = tested on: SF-295 CNS
SF-539 CNS = tested on: SF-539 CNS
SK-MEL-2 melanoma = tested on: SK-MEL-2 melanoma
SK-MEL-5 melanoma = tested on: SK-MEL-5 melanoma
SK-OV-3 ovarian = tested on: SK-OV-3 ovarian
SNB-19 CNS = tested on: SNB-19 CNS
SNB-75 CNS = tested on: SNB-75 CNS
SW-620 colon = tested on: SW-620 colon
T-47D breast = tested on: T-47D breast
TK-10 renal = tested on: TK-10 renal
U251 CNS = tested on: U251 CNS
UACC-257 melanoma = tested on: UACC-257 melanoma
UACC-62 melanoma = tested on: UACC-62 melanoma
UO-31 renal = tested on: UO-31 renal
HOP-62 NSCLC = tested on: HOP-62 NSCLC
KM12 colon = tested on: KM12 colon
SK-MEL-28 melanoma = tested on: SK-MEL-28 melanoma
SN12C renal = tested on: SN12C renal
SR leukemia = tested on: SR leukemia
BT-549 breast = tested on: BT-549 breast
NCI-H460 lung = tested on: NCI-H460 lung
NCI-H522 lung = tested on: NCI-H522 lung
OVCAR-3 ovarian = tested on: OVCAR-3 ovarian
OVCAR-4 ovarian = tested on: OVCAR-4 ovarian

CCOC(=O)C1C(c2ccccc2)C2(C#N)C(=N)OC1(C)C2(C#N)C#N (centres undefined)
TGI (786-0 renal): 26.4 µM
TGI (A498 renal): 97.6 µM
TGI (A549 NSCLC): > 100 µM
TGI (ACHN renal): 50.8 µM
TGI (CAKI-1 renal): 20.3 µM
TGI (CCRF-CEM leukemia): 99.7 µM
TGI (COLO 205 colon): 31.5 µM
TGI (DU-145 prostate): > 100 µM
TGI (EKVX NSCLC): > 100 µM
TGI (HCC-2998 colon): 27 µM
TGI (HCT-116 colon): 35.7 µM
TGI (HCT-15 colon): > 100 µM
TGI (HL-60(TB) leukemia): 55.7 µM
TGI (HOP-92 NSCLC): 48.6 µM
TGI (HS 578T breast): > 100 µM
TGI (HT29 colon): 29.4 µM
TGI (IGROV1 ovarian): 37.8 µM
TGI (K-562 leukemia): 48.8 µM
TGI (LOX IMVI melanoma): 29.4 µM
TGI (M14 melanoma): > 100 µM
TGI (MALME-3M melanoma): 54.3 µM
TGI (MCF7 breast): > 100 µM
TGI (MDA-MB-231 breast): 26.7 µM
TGI (MDA-MB-435): 51.6 µM
TGI (MDA-N): 27.9 µM
TGI (MOLT-4 leukemia): 56 µM
TGI (NCI-H226 lung): > 100 µM
TGI (NCI-H23 lung): 37 µM
TGI (NCI/ADR-RES ovarian): 85.9 µM
TGI (OVCAR-5 ovarian): 72.6 µM
TGI (OVCAR-8 ovarian): 80.4 µM
TGI (PC-3 prostate): > 100 µM
TGI (RPMI-8226 leukemia): 42.6 µM
TGI (RXF 393 renal): 35.5 µM
TGI (SF-268 CNS): 94 µM
TGI (SF-295 CNS): > 100 µM
TGI (SF-539 CNS): 37.4 µM
TGI (SK-MEL-2 melanoma): 59.6 µM
TGI (SK-MEL-5 melanoma): 25.1 µM
TGI (SK-OV-3 ovarian): > 100 µM
TGI (SNB-19 CNS): > 100 µM
TGI (SNB-75 CNS): 34.7 µM
TGI (SW-620 colon): > 100 µM
TGI (T-47D breast): > 100 µM
TGI (TK-10 renal): 69.7 µM
TGI (U251 CNS): > 100 µM
TGI (UACC-257 melanoma): 54.2 µM
TGI (UACC-62 melanoma): 82.6 µM
TGI (UO-31 renal): 31.4 µM

COc1ccc(C(=O)/C=C/c2ccc(OCC(=O)N3CCN(c4ccccc4)CC3)cc2)cc1OC
TGI (786-0 renal): > 10 µM
TGI (A549 NSCLC): > 10 µM
TGI (CAKI-1 renal): > 10 µM
TGI (CCRF-CEM leukemia): 7.21 µM
TGI (COLO 205 colon): > 10 µM
TGI (DU-145 prostate): > 10 µM
TGI (EKVX NSCLC): > 10 µM
TGI (HCC-2998 colon): > 10 µM
TGI (HCT-15 colon): > 10 µM
TGI (HL-60(TB) leukemia): > 10 µM
TGI (HOP-62 NSCLC): > 10 µM
TGI (HT29 colon): > 10 µM
TGI (IGROV1 ovarian): > 10 µM
TGI (K-562 leukemia): > 10 µM
TGI (KM12 colon): > 10 µM
TGI (M14 melanoma): > 10 µM
TGI (MALME-3M melanoma): > 10 µM
TGI (MCF7 breast): > 10 µM
TGI (MDA-MB-231 breast): > 10 µM
TGI (MDA-N): > 10 µM
TGI (MOLT-4 leukemia): 7.06 µM
TGI (NCI-H23 lung): 5.55 µM
TGI (OVCAR-8 ovarian): > 10 µM
TGI (PC-3 prostate): > 10 µM
TGI (RPMI-8226 leukemia): > 10 µM
TGI (RXF 393 renal): 3.86 µM
TGI (SF-268 CNS): > 10 µM
TGI (SF-295 CNS): > 10 µM
TGI (SK-MEL-28 melanoma): > 10 µM
TGI (SK-MEL-5 melanoma): > 10 µM
TGI (SK-OV-3 ovarian): > 10 µM
TGI (SN12C renal): > 10 µM
TGI (SNB-75 CNS): 8.75 µM
TGI (SR leukemia): 6.47 µM
TGI (SW-620 colon): > 10 µM
TGI (T-47D breast): > 10 µM
TGI (TK-10 renal): > 10 µM
TGI (UACC-257 melanoma): > 10 µM
TGI (UACC-62 melanoma): > 10 µM

CSc1nc(SC)c2cnn(-c3ccnc4cc(Cl)ccc34)c2n1
GI50 (786-0 renal): 38.6 µM
TGI (786-0 renal): > 100 µM
GI50 (A498 renal): > 100 µM
TGI (A498 renal): > 100 µM
GI50 (A549 NSCLC): > 85.7 µM
TGI (A549 NSCLC): > 100 µM
GI50 (ACHN renal): 42 µM
TGI (ACHN renal): > 86.8 µM
GI50 (BT-549 breast): 43.3 µM
TGI (BT-549 breast): > 87.7 µM
GI50 (CAKI-1 renal): 22.9 µM
TGI (CAKI-1 renal): > 100 µM
GI50 (CCRF-CEM leukemia): > 100 µM
TGI (CCRF-CEM leukemia): > 100 µM
GI50 (COLO 205 colon): > 100 µM
TGI (COLO 205 colon): > 100 µM
GI50 (DU-145 prostate): 42.6 µM
TGI (DU-145 prostate): > 67 µM
GI50 (EKVX NSCLC): 25.9 µM
TGI (EKVX NSCLC): 70.5 µM
GI50 (HCC-2998 colon): 82.7 µM
TGI (HCC-2998 colon): > 100 µM
GI50 (HCT-116 colon): 52.9 µM
TGI (HCT-116 colon): > 100 µM
GI50 (HCT-15 colon): > 71.3 µM
TGI (HCT-15 colon): > 100 µM
GI50 (HL-60(TB) leukemia): 21.5 µM
TGI (HL-60(TB) leukemia): 50.6 µM
GI50 (HOP-62 NSCLC): 29.1 µM
TGI (HOP-62 NSCLC): > 96.1 µM
GI50 (HOP-92 NSCLC): > 63.6 µM
TGI (HOP-92 NSCLC): > 100 µM
GI50 (HS 578T breast): 23.3 µM
TGI (HS 578T breast): > 100 µM
GI50 (HT29 colon): > 100 µM
TGI (HT29 colon): > 100 µM
GI50 (IGROV1 ovarian): 47.8 µM
TGI (IGROV1 ovarian): > 100 µM
GI50 (K-562 leukemia): > 61 µM
TGI (K-562 leukemia): > 100 µM
GI50 (KM12 colon): > 100 µM
TGI (KM12 colon): > 100 µM
GI50 (LOX IMVI melanoma): > 59 µM
TGI (LOX IMVI melanoma): > 100 µM
GI50 (M14 melanoma): 34.8 µM
TGI (M14 melanoma): > 94.7 µM
GI50 (MALME-3M melanoma): 32.9 µM
TGI (MALME-3M melanoma): > 100 µM
GI50 (MCF7 breast): 2.61 µM
TGI (MCF7 breast): > 41 µM
GI50 (MDA-MB-231 breast): 20 µM
TGI (MDA-MB-231 breast): 67.4 µM
GI50 (MDA-MB-435): 10.7 µM
TGI (MDA-MB-435): > 100 µM
GI50 (MOLT-4 leukemia): 42.5 µM
TGI (MOLT-4 leukemia): > 89.6 µM
GI50 (NCI-H226 lung): 85.4 µM
TGI (NCI-H226 lung): > 100 µM
GI50 (NCI-H23 lung): 21.2 µM
TGI (NCI-H23 lung): > 54.9 µM
GI50 (NCI-H460 lung): 9.36 µM
TGI (NCI-H460 lung): > 45.6 µM
GI50 (NCI-H522 lung): 55.1 µM
TGI (NCI-H522 lung): > 100 µM
GI50 (NCI/ADR-RES ovarian): 51.2 µM
TGI (NCI/ADR-RES ovarian): > 100 µM
GI50 (OVCAR-3 ovarian): 6.87 µM
TGI (OVCAR-3 ovarian): > 31.2 µM
GI50 (OVCAR-4 ovarian): > 100 µM
TGI (OVCAR-4 ovarian): > 100 µM
GI50 (OVCAR-5 ovarian): > 100 µM
TGI (OVCAR-5 ovarian): > 100 µM
GI50 (OVCAR-8 ovarian): > 56.5 µM
TGI (OVCAR-8 ovarian): > 100 µM
GI50 (PC-3 prostate): > 82.3 µM
TGI (PC-3 prostate): > 100 µM
GI50 (RPMI-8226 leukemia): > 55.7 µM
TGI (RPMI-8226 leukemia): > 100 µM
GI50 (RXF 393 renal): 14.2 µM
TGI (RXF 393 renal): 48.6 µM
GI50 (SF-268 CNS): 19.7 µM
TGI (SF-268 CNS): 58.1 µM
GI50 (SF-295 CNS): 5.46 µM
TGI (SF-295 CNS): > 100 µM
GI50 (SF-539 CNS): 29.1 µM
TGI (SF-539 CNS): > 62.4 µM
GI50 (SK-MEL-2 melanoma): > 44.9 µM
TGI (SK-MEL-2 melanoma): > 72.8 µM
GI50 (SK-MEL-28 melanoma): > 100 µM
TGI (SK-MEL-28 melanoma): > 100 µM
GI50 (SK-MEL-5 melanoma): 51.9 µM
TGI (SK-MEL-5 melanoma): > 100 µM
GI50 (SK-OV-3 ovarian): > 81.1 µM
TGI (SK-OV-3 ovarian): > 100 µM
GI50 (SN12C renal): 51 µM
TGI (SN12C renal): > 100 µM
GI50 (SNB-19 CNS): > 100 µM
TGI (SNB-19 CNS): > 100 µM
GI50 (SNB-75 CNS): > 67.8 µM
TGI (SNB-75 CNS): > 100 µM
GI50 (SR leukemia): 7.88 µM
TGI (SR leukemia): > 31.9 µM
GI50 (SW-620 colon): > 59.1 µM
TGI (SW-620 colon): > 100 µM
GI50 (T-47D breast): > 100 µM
TGI (T-47D breast): > 100 µM
GI50 (TK-10 renal): 30.9 µM
TGI (TK-10 renal): > 89.1 µM
GI50 (U251 CNS): 45.4 µM
TGI (U251 CNS): > 100 µM
GI50 (UACC-257 melanoma): > 49.7 µM
TGI (UACC-257 melanoma): > 86.4 µM
GI50 (UACC-62 melanoma): 33.9 µM
TGI (UACC-62 melanoma): > 100 µM
GI50 (UO-31 renal): > 100 µM
TGI (UO-31 renal): > 100 µM
